Experimental data from ChEMBL document CHEMBL3885861, “Open TG-GATES”.

Organism: Rattus norvegicus
Assay: Open TG-GATES - Regimen: Single
Assay type: toxicity, organism-based, Sprague-Dawley
Parameters: regimen Single, gender Male, age 6 weeks
Conditions: in vivo, po, 0 mg/kg, route gavage, dose level Control; for APTT / Bas / Eos / Fbg / Hb / Ht / Lym / MCH / MCHC / MCV / Mono / Neu / PT / Plat / RBC / Ret / WBC: tissue Blood; for KIDNEY_L / KIDNEY_R / KIDNEY_TOTAL: tissue Kidney; for LIVER: tissue Liver; for A/G / ALP / ALT / AST / BUN / CRE / Ca / Cl / DBIL / GLC / IP / K / LDH / Na / PL / RALB / TBIL / TC / TG / TP / gamma-GTP: tissue Plasma

Structure (SMILES): NC(=O)N/N=C/c1ccc([N+](=O)[O-])o1 [NITROFURAZONE]
- TERMINAL_BW (3 h): 181.6 g
- APTT (3 h): 15.7 s
- Bas (3 h): 0%
- Eos (3 h): 0.6%
- Fbg (3 h): 250 mg/dL
- Hb (3 h): 12.7 g/dL
- Ht (3 h): 39.7%
- Lym (3 h): 79%
- MCH (3 h): 21.6 pg
- MCHC (3 h): 32%
- MCV (3 h): 67.7 fL
- Mono (3 h): 2.8%
- Neu (3 h): 17%
- PT (3 h): 14.7 s
- Plat (3 h): 114.3 x10_4/uL
- RBC (3 h): 586.4 x10_4/ul
- Ret (3 h): 10.9%
- WBC (3 h): 77.6 x10_2/uL
- KIDNEY_L (3 h): 0.8 g
- KIDNEY_R (3 h): 0.8 g
- KIDNEY_TOTAL (3 h): 1.6 g
- LIVER (3 h): 8.2 g
- A/G (3 h): 0.9
- ALP (3 h): 1508.2 IU/L
- ALT (3 h): 45.4 IU/L
- AST (3 h): 78 IU/L
- BUN (3 h): 9.8 mg/dL
- CRE (3 h): 0.2 mg/dL
- Ca (3 h): 11.3 mg/dL
- Cl (3 h): 104.8 meq/L
- DBIL (3 h): 0.012 mg/dL
- GLC (3 h): 179.2 mg/dL
- IP (3 h): 9.6 mg/dL
- K (3 h): 4.1 meq/L
- LDH (3 h): 49.8 IU/L
- Na (3 h): 141 meq/L
- PL (3 h): 141.8 mg/dL
- RALB (3 h): 2.4 g/dL
- TBIL (3 h): 0.056 mg/dL
- TC (3 h): 80.4 mg/dL
- TG (3 h): 54.6 mg/dL
- TP (3 h): 5.2 g/dL
- gamma-GTP (3 h): 1.2 IU/L
- TERMINAL_BW (6 h): 180.8 g
- APTT (6 h): 16.4 s
- Bas (6 h): 0.2%
- Eos (6 h): 0.6%
- Fbg (6 h): 266.6 mg/dL
- Hb (6 h): 12.7 g/dL
- Ht (6 h): 39.4%
- Lym (6 h): 73.2%
- MCH (6 h): 22.1 pg
- MCHC (6 h): 32.2%
- MCV (6 h): 68.6 fL
- Mono (6 h): 3%
- Neu (6 h): 21.8%
- PT (6 h): 14.6 s
- Plat (6 h): 118.4 x10_4/uL
- RBC (6 h): 576.2 x10_4/ul
- Ret (6 h): 11%
- WBC (6 h): 90.9 x10_2/uL
- KIDNEY_L (6 h): 0.8 g
- KIDNEY_R (6 h): 0.9 g
- KIDNEY_TOTAL (6 h): 1.7 g
- LIVER (6 h): 7.4 g
- A/G (6 h): 0.9
- ALP (6 h): 1461 IU/L
- ALT (6 h): 44.4 IU/L
- AST (6 h): 77.2 IU/L
- BUN (6 h): 8 mg/dL
- CRE (6 h): 0.2 mg/dL
- Ca (6 h): 11 mg/dL
- Cl (6 h): 105 meq/L
- DBIL (6 h): 0.01 mg/dL
- GLC (6 h): 169.8 mg/dL
- IP (6 h): 10.3 mg/dL
- K (6 h): 4.2 meq/L
- LDH (6 h): 61.4 IU/L
- Na (6 h): 140.6 meq/L
- PL (6 h): 132.2 mg/dL
- RALB (6 h): 2.4 g/dL
- TBIL (6 h): 0.062 mg/dL
- TC (6 h): 78.2 mg/dL
- TG (6 h): 36.2 mg/dL
- TP (6 h): 5.2 g/dL
- gamma-GTP (6 h): 1 IU/L
- TERMINAL_BW (9 h): 179.5 g
- APTT (9 h): 15.7 s
- Bas (9 h): 0%
- Eos (9 h): 0.6%
- Fbg (9 h): 260 mg/dL
- Hb (9 h): 12.7 g/dL
- Ht (9 h): 39.8%
- Lym (9 h): 75%
- MCH (9 h): 21.6 pg
- MCHC (9 h): 32%
- MCV (9 h): 67.5 fL
- Mono (9 h): 2.4%
- Neu (9 h): 21.4%
- PT (9 h): 14.5 s
- Plat (9 h): 109.4 x10_4/uL
- RBC (9 h): 590.6 x10_4/ul
- Ret (9 h): 10.5%
- WBC (9 h): 64.3 x10_2/uL
- KIDNEY_L (9 h): 0.8 g
- KIDNEY_R (9 h): 0.8 g
- KIDNEY_TOTAL (9 h): 1.6 g
- LIVER (9 h): 7.1 g
- A/G (9 h): 0.9
- ALP (9 h): 1214.2 IU/L
- ALT (9 h): 47.8 IU/L
- AST (9 h): 79.4 IU/L
- BUN (9 h): 8.8 mg/dL
- CRE (9 h): 0.2 mg/dL
- Ca (9 h): 11 mg/dL
- Cl (9 h): 105 meq/L
- DBIL (9 h): 0.012 mg/dL
- GLC (9 h): 169 mg/dL
- IP (9 h): 10.6 mg/dL
- K (9 h): 3.9 meq/L
- LDH (9 h): 55.2 IU/L
- Na (9 h): 142 meq/L
- PL (9 h): 139.4 mg/dL
- RALB (9 h): 2.4 g/dL
- TBIL (9 h): 0.062 mg/dL
- TC (9 h): 85.2 mg/dL
- TG (9 h): 25 mg/dL
- TP (9 h): 5.2 g/dL
- gamma-GTP (9 h): 1.4 IU/L
- TERMINAL_BW (24 h): 194.2 g
- APTT (24 h): 17.5 s
- Bas (24 h): 0%
- Eos (24 h): 0.8%
- Fbg (24 h): 246.6 mg/dL
- Hb (24 h): 13 g/dL
- Ht (24 h): 40.1%
- Lym (24 h): 76.8%
- MCH (24 h): 22 pg
- MCHC (24 h): 32.4%
- MCV (24 h): 67.8 fL
- Mono (24 h): 3.2%
- Neu (24 h): 18.6%
- PT (24 h): 14.8 s
- Plat (24 h): 111.2 x10_4/uL
- RBC (24 h): 592.4 x10_4/ul
- Ret (24 h): 9.7%
- WBC (24 h): 96.7 x10_2/uL
- KIDNEY_L (24 h): 0.8 g
- KIDNEY_R (24 h): 0.9 g
- KIDNEY_TOTAL (24 h): 1.7 g
- LIVER (24 h): 9 g
- A/G (24 h): 0.9
- ALP (24 h): 1711.4 IU/L
- ALT (24 h): 48.4 IU/L
- AST (24 h): 74.4 IU/L
- BUN (24 h): 14.8 mg/dL
- CRE (24 h): 0.2 mg/dL
- Ca (24 h): 11.3 mg/dL
- Cl (24 h): 104.8 meq/L
- DBIL (24 h): 0.012 mg/dL
- GLC (24 h): 177.6 mg/dL
- IP (24 h): 8 mg/dL
- K (24 h): 3.7 meq/L
- LDH (24 h): 61.2 IU/L
- Na (24 h): 142 meq/L
- PL (24 h): 149.2 mg/dL
- RALB (24 h): 2.5 g/dL
- TBIL (24 h): 0.044 mg/dL
- TC (24 h): 82.2 mg/dL
- TG (24 h): 72.4 mg/dL
- TP (24 h): 5.4 g/dL
- gamma-GTP (24 h): 1 IU/L
